# Calls of active or inactive are those of the source. The rule behind the calls is not given here.
# System: CCRIS mutagenicity, Ames/micronucleus/aberration tests
# Test: CCRIS mutagenicity studies
# [1] = Test System: AMES SALMONELLA TYPHIMURIUM, Strain/Indicator: TA100, Metabolic Activation: NONE, Method: STANDARD PLATE
# [2] = Test System: AMES SALMONELLA TYPHIMURIUM, Strain/Indicator: TA100, Metabolic Activation: RAT, LIVER, S-9, AROCLOR 1254, Method: STANDARD PLATE
# [3] = Test System: AMES SALMONELLA TYPHIMURIUM, Strain/Indicator: TA98, Metabolic Activation: HAMSTER, LIVER, S-9, AROCLOR 1254, Method: STANDARD PLATE
# [4] = Test System: AMES SALMONELLA TYPHIMURIUM, Strain/Indicator: TA98, Metabolic Activation: NONE, Method: STANDARD PLATE
# [5] = Test System: AMES SALMONELLA TYPHIMURIUM, Strain/Indicator: TA98, Metabolic Activation: RAT, LIVER, S-9, AROCLOR 1254, Method: STANDARD PLATE
# [6] = Test System: AMES SALMONELLA TYPHIMURIUM, Strain/Indicator: TA100, Metabolic Activation: HAMSTER, LIVER, S-9, AROCLOR 1254, Method: STANDARD PLATE
# [7] = Test System: AMES SALMONELLA TYPHIMURIUM, Strain/Indicator: TA1535, Metabolic Activation: HAMSTER, LIVER, S-9, AROCLOR 1254, Method: STANDARD PLATE
# [8] = Test System: AMES SALMONELLA TYPHIMURIUM, Strain/Indicator: TA1535, Metabolic Activation: NONE, Method: STANDARD PLATE
# [9] = Test System: AMES SALMONELLA TYPHIMURIUM, Strain/Indicator: TA1535, Metabolic Activation: RAT, LIVER, S-9, AROCLOR 1254, Method: STANDARD PLATE
# [10] = Test System: AMES SALMONELLA TYPHIMURIUM, Strain/Indicator: TA1537, Metabolic Activation: HAMSTER, LIVER, S-9, AROCLOR 1254, Method: STANDARD PLATE
# [11] = Test System: AMES SALMONELLA TYPHIMURIUM, Strain/Indicator: TA1537, Metabolic Activation: NONE, Method: STANDARD PLATE
# [12] = Test System: AMES SALMONELLA TYPHIMURIUM, Strain/Indicator: TA1537, Metabolic Activation: RAT, LIVER, S-9, AROCLOR 1254, Method: STANDARD PLATE
# [13] = Test System: AMES SALMONELLA TYPHIMURIUM, Strain/Indicator: TA1538, Metabolic Activation: HAMSTER, LIVER, S-9, AROCLOR 1254, Method: STANDARD PLATE
# [14] = Test System: AMES SALMONELLA TYPHIMURIUM, Strain/Indicator: TA1538, Metabolic Activation: NONE, Method: STANDARD PLATE
# [15] = Test System: AMES SALMONELLA TYPHIMURIUM, Strain/Indicator: TA1538, Metabolic Activation: RAT, LIVER, S-9, AROCLOR 1254, Method: STANDARD PLATE
# [16] = Test System: MOUSE LYMPHOMA, Strain/Indicator: L5178Y (TK+/TK-), Metabolic Activation: NONE, Method: SUSPENSION/PLATE
# [17] = Test System: MOUSE LYMPHOMA, Strain/Indicator: L5178Y (TK+/TK-), Metabolic Activation: RAT, LIVER, S-9, AROCLOR 1254, Method: SUSPENSION/PLATE
compound,measurement,setting,value
O=[N+]([O-])c1ccc(-c2ccccc2)cc1,mutagenic call,"Test System: AMES SALMONELLA TYPHIMURIUM, Strain/Indicator: TA98(1,8-DNP6), Metabolic Activation: NONE",inactive; negative
same,mutagenic call,"Test System: AMES SALMONELLA TYPHIMURIUM, Strain/Indicator: TA98(1,8-DNP6), Metabolic Activation: NONE, Method: STANDARD PLATE",active; positive
same,mutagenic call,"Test System: AMES SALMONELLA TYPHIMURIUM, Strain/Indicator: TA98(1,8-DNP6), Metabolic Activation: RAT, LIVER, S-9, AROCLOR 1254",inactive; negative
same,mutagenic call,"Test System: AMES SALMONELLA TYPHIMURIUM, Strain/Indicator: TA98(NR), Metabolic Activation: NONE",inactive; negative
same,mutagenic call,"Test System: AMES SALMONELLA TYPHIMURIUM, Strain/Indicator: TA98(NR), Metabolic Activation: NONE, Method: STANDARD PLATE",inactive; negative
same,mutagenic call,"Test System: AMES SALMONELLA TYPHIMURIUM, Strain/Indicator: TA98(NR), Metabolic Activation: RAT, LIVER, S-9, AROCLOR 1254",inactive; negative
same,mutagenic call,"Test System: AMES SALMONELLA TYPHIMURIUM, Strain/Indicator: TA98, Metabolic Activation: NONE",inactive; negative
same,mutagenic call,"Test System: AMES SALMONELLA TYPHIMURIUM, Strain/Indicator: TA98, Metabolic Activation: NONE, Method: PREINCUBATION",active; positive
same,mutagenic call,"Test System: AMES SALMONELLA TYPHIMURIUM, Strain/Indicator: TA98, Metabolic Activation: RAT, LIVER, S-9, AROCLOR 1254",inactive; negative
same,mutagenic call,"Test System: AMES SALMONELLA TYPHIMURIUM, Strain/Indicator: TA98, Metabolic Activation: RAT, LIVER, S-9, PCB (10%), Method: PREINCUBATION",active; positive
same,mutagenic call,"Test System: AMES SALMONELLA TYPHIMURIUM, Strain/Indicator: TA98, Metabolic Activation: RAT, LIVER, S-9, PCB, Method: PREINCUBATION",active; positive
same,mutagenic call,"Test System: AMES SALMONELLA TYPHIMURIUM, Strain/Indicator: TA98, Metabolic Activation: RAT, LIVER, S-100 (CYTOSOL), Method: PREINCUBATION",active; positive
same,mutagenic call,"Test System: AMES SALMONELLA TYPHIMURIUM, Strain/Indicator: TA98, Metabolic Activation: RAT, LIVER, S-100 (MICROSOMES), Method: PREINCUBATION",active; positive
same,mutagenic call,"Test System: AMES SALMONELLA TYPHIMURIUM, Strain/Indicator: TA98, Metabolic Activation: S-9, Method: STANDARD PLATE",active; positive
same,mutagenic call,"Test System: AMES SALMONELLA TYPHIMURIUM, Strain/Indicator: TA100(NR), Metabolic Activation: NONE",inactive; negative
same,mutagenic call,"Test System: AMES SALMONELLA TYPHIMURIUM, Strain/Indicator: TA100(NR), Metabolic Activation: RAT, LIVER, S-9, AROCLOR 1254",inactive; negative
same,mutagenic call,"Test System: AMES SALMONELLA TYPHIMURIUM, Strain/Indicator: TA100, Metabolic Activation: NONE",inactive; negative
same,mutagenic call,[1],active; positive
same,mutagenic call,"Test System: AMES SALMONELLA TYPHIMURIUM, Strain/Indicator: TA100, Metabolic Activation: RAT, LIVER, S-9, AROCLOR 1254",inactive; negative
same,mutagenic call,"Test System: AMES SALMONELLA TYPHIMURIUM, Strain/Indicator: TA100, Metabolic Activation: S-9, Method: STANDARD PLATE",active; positive
same,mutagenic call,"Test System: AMES SALMONELLA TYPHIMURIUM, Strain/Indicator: TA104, Metabolic Activation: NONE",inactive; negative
same,mutagenic call,"Test System: AMES SALMONELLA TYPHIMURIUM, Strain/Indicator: TA104, Metabolic Activation: RAT, LIVER, S-9, AROCLOR 1254",inactive; negative
same,mutagenic call,"Test System: CHINESE HAMSTER OVARY, Strain/Indicator: CHO-K1-BH4 (HGPRT), Metabolic Activation: NONE, Method: SUSPENSION/PLATE",inactive; negative
same,mutagenic call,"Test System: CHINESE HAMSTER OVARY, Strain/Indicator: CHO-K1-BH4 (HGPRT), Metabolic Activation: RAT, LIVER, S-9, AROCLOR, Method: SUSPENSION/PLATE",inactive; negative
same,mutagenic call,"Test System: UDS RAT HEPATOCYTES, Strain/Indicator: THY INCORP, Metabolic Activation: NONE, Method: AUTORADIOGRAPHY (SERUM-FREE MEDIA)",active; positive
OCC(O)C1CO1 (stereo not given),mutagenic call,"End Point: IN VIVO MICRONUCLEUS, Test System: SPERMATID, Species: RAT, Strain/Sex: SPRAGUE-DAWLEY/MALE, Route: IP INJECTION",active; positive
same,mutagenic call,[1],active; positive
same,mutagenic call,[2],active; positive
O=C1C=CC(=O)CC(=O)C1,mutagenic call,[3],inactive; negative
same,mutagenic call,[4],inactive; negative
same,mutagenic call,[5],inactive; negative
same,mutagenic call,[6],inactive; negative
same,mutagenic call,[1],inactive; negative
same,mutagenic call,[2],inactive; negative
same,mutagenic call,[7],inactive; negative
same,mutagenic call,[8],inactive; negative
same,mutagenic call,[9],inactive; negative
same,mutagenic call,[10],inactive; negative
same,mutagenic call,[11],inactive; negative
same,mutagenic call,[12],inactive; negative
same,mutagenic call,[13],inactive; negative
same,mutagenic call,[14],inactive; negative
same,mutagenic call,[15],inactive; negative
same,mutagenic call,[16],active; positive. reevaluation of results: positive
same,mutagenic call,[17],inactive; negative. reevaluation of results: negative
O=[N+]([O-])c1ccc(-c2cscn2)o1,mutagenic call,"Test System: AMES SALMONELLA TYPHIMURIUM, Strain/Indicator: TA100, Metabolic Activation: RAT, LIVER, S-9, KC500 OR PHENOBARBITAL, Method: LIQUID SUSPENSION",active; positive
CC/C=C\C/C=C\C/C=C\CCCCCCCC(=O)O,mutagenic call,[3],inactive; negative
same,mutagenic call,[4],inactive; negative
same,mutagenic call,[5],inactive; negative
same,mutagenic call,[6],inactive; negative
same,mutagenic call,[1],inactive; negative
same,mutagenic call,[2],inactive; negative
same,mutagenic call,[7],inactive; negative
same,mutagenic call,[8],inactive; negative
same,mutagenic call,[9],inactive; negative
same,mutagenic call,[10],inactive; negative
same,mutagenic call,[11],inactive; negative
same,mutagenic call,[12],inactive; negative
same,mutagenic call,[13],inactive; negative
same,mutagenic call,[14],inactive; negative
same,mutagenic call,[15],inactive; negative
same,mutagenic call,[16],inactive; negative. reevaluation of results: inconclusive
same,mutagenic call,[17],inactive; negative. reevaluation of results: negative
CSc1nc2cc(Oc3cccc(Cl)c3Cl)c(Cl)cc2[nH]1,mutagenic call,"End Point: IN VITRO CHROMOSOMAL ABERRATIONS, Test System: RIVER BUFFALO LYMPHOCYTES, Metabolic Activation: NONE",active; positive (structural and ploidy changes)
same,mutagenic call,"End Point: IN VITRO MICRONUCLEUS, Test System: RIVER BUFFALO LYMPHOCYTES, Metabolic Activation: NONE",active; positive
